This note sets out measurements from patent publication US9290451B2 (Hoffmann-La Roche Inc., priority 2011, dated 2016).

Each structure is given as a SMILES string.

The target of one experiment is human CB2 receptors (Homo sapiens (Human), UniProt P34972). Kind of experiment: cAMP assay, CHO cells expressing human CB2 receptors. The following applies: CHO cells expressing human CB2, cAMP; read-out: human CB2 EC50. The class given is cell-based. In short, it runs like this:
(§1)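 Whole CHO cells were preincubated in Krebs Ringer bicarbonate buffer with 1 mM IBMX for 30 min at 30 °C, then exposed to compounds for 30 min at 30 °C. cAMP was quantified by time-resolved FRET (cAMP-Nano-TRF) against a standard curve, and EC50 values were derived.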

A further experiment addresses human CB1 receptors (Homo sapiens (Human), UniProt P21554). Kind of experiment: cAMP assay, CHO cells expressing human CB1 receptors. Format: cell-based. The settings on record: CHO cells expressing human CB1, cAMP; read-out: human CB1 EC50. Summed up:
as §1
On the technique in general: Changes in cAMP serve as a functional read-out for many G protein-coupled receptors.

Sequence of human CB2 receptors (P34972 whole entry): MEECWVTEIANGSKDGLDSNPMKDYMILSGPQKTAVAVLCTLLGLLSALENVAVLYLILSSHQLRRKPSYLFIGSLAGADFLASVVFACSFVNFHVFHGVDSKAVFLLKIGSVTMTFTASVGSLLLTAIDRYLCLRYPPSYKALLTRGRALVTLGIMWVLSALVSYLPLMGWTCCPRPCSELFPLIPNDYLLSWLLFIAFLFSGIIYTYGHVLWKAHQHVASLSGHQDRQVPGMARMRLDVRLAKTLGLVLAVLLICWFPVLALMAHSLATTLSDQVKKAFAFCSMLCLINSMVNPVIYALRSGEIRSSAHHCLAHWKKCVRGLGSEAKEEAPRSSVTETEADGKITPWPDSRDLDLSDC
Sequence of human CB1 receptors (P21554 whole entry): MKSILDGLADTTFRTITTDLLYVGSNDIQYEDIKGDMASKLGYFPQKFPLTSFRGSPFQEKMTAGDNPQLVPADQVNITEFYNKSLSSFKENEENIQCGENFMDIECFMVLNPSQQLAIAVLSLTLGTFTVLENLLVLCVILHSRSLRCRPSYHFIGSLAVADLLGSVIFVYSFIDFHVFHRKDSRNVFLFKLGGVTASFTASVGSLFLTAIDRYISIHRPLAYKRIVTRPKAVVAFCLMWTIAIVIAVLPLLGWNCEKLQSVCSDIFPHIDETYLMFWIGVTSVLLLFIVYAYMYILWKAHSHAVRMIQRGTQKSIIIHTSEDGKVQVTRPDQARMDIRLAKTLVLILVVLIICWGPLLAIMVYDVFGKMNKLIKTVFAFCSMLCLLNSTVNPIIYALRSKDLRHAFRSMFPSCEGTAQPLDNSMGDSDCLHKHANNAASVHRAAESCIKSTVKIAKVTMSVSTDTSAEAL

By EC50 is commonly meant the concentration that produces a half-maximal response. With `NC(=O)[C@H](CC1CC1)NC(=O)c1ccc(C2CCOC2)c(OCC2CC2)n1` (stereo partly drawn) [Example 136, 6-Cyclopropylmethoxy-5-(tetrahydro-furan-3-yl)-pyridine-2-carboxylic acid ((S)-1-carbamoyl-2-cyclopropyl-ethyl)-amide], the EC50 was 65.4 nM at human CB2 receptors and over 10000 nM on human CB1 receptors.
With `O=C(NC1CCCCC1O)c1ccc(N2CC(F)(F)C2)c(OCC2CC2)n1` (centres unmarked) [Example 137, 6-Cyclopropylmethoxy-5-(3,3-difluoro-azetidin-1-yl)-pyridine-2-carboxylic acid (2-hydroxy-cyclohexyl)-amide], the values for the EC50 on human CB2 receptors and at human CB1 receptors were 211 nM and over 10000 nM, respectively.
On to `Cc1nc([C@H](CC2CC2)NC(=O)c2ccc(N3CC(F)(F)C3)c(OCC3CC3)n2)no1` [Example 138, 6-Cyclopropylmethoxy-5-(3,3-difluoro-azetidin-1-yl)-pyridine-2-carboxylic acid [(S)-2-cyclopropyl-1-(5-methyl-[1,2,4]oxadiazol-3-yl)-ethyl]-amide], for which the figures for the EC50 at human CB2 receptors and on human CB1 receptors were 26.7 nM and over 10000 nM, respectively.
The matching figures for `CC(C)(O)[C@H](CC1CC1)NC(=O)c1ccc(C2CC2)c(OCC2CC2)n1` [Example 139, 5-Cyclopropyl-6-cyclopropylmethoxy-pyridine-2-carboxylic acid ((S)-1-cyclopropylmethyl-2-hydroxy-2-methyl-propyl)-amide]: 113 nM and over 10000 nM.
The matching figures for `CC(C)C[C@H](NC(=O)c1ccc(N2CC(F)(F)C2)c(-c2cccc(Cl)c2)n1)C(N)=O` [Example 140, 6-(3-Chloro-phenyl)-5-(3,3-difluoro-azetidin-1-yl)-pyridine-2-carboxylic acid ((S)-1-carbamoyl-3-methyl-butyl)-amide]: 305 nM and over 10000 nM.
The matching figures for `CC(C)(CO)NC(=O)c1ccc(C2CCOC2)c(OCC2CC2)n1` (centres unmarked) [Example 141, 6-Cyclopropylmethoxy-5-(tetrahydro-furan-3-yl)-pyridine-2-carboxylic acid (2-hydroxy-1,1-dimethyl-ethyl)-amide]: 459 nM and over 10000 nM.
As to `COCCOc1nc(C(=O)N[C@@H](CC(C)C)C(N)=O)ccc1C1CC1` [Example 142, 5-Cyclopropyl-6-(2-methoxy-ethoxy)-pyridine-2-carboxylic acid ((S)-1-carbamoyl-3-methyl-butyl)-amide], the half-maximal effective concentration (EC50) at human CB2 receptors is 14.4 nM; on human CB1 receptors, over 10000 nM.
For `CC1(C)CCc2ccc(C(=O)NC[C@](C)(O)C3CC3)nc2C1` [Example 143, 7,7-Dimethyl-5,6,7,8-tetrahydro-quinoline-2-carboxylic acid ((R)-2-cyclopropyl-2-hydroxy-propyl)-amide] the same measures were 410 nM and over 10000 nM.
The matching figures for `Cc1nc(C(C)(C)NC(=O)c2ccc3c(n2)CC(C)(C)CC3)no1` [Example 144, 7,7-dimethyl-N-(2-(5-methyl-1,2,4-oxadiazol-3-yl)propan-2-yl)-5,6,7,8-tetrahydroquinoline-2-carboxamide]: 22.8 nM and 739 nM.
The matching figures for `CC1(C)CCc2ccc(C(=O)NC(C)(C)CO)nc2C1` [Example 145, N-(1-hydroxy-2-methylpropan-2-yl)-7,7-dimethyl-5,6,7,8-tetrahydroquinoline-2-carboxamide]: 289 nM and over 10000 nM.
Turning to `O=C(N[C@@H](CC1CC1)c1nccs1)c1ccc(N2CC(F)(F)C2)c(OCC2CC2)n1` [Example 146, 6-Cyclopropylmethoxy-5-(3,3-difluoro-azetidin-1-yl)-pyridine-2-carboxylic acid ((S)-2-cyclopropyl-1-thiazol-2-yl-ethyl)-amide], the EC50 at human CB2 receptors is 36.6 nM; at human CB1 receptors, over 10000 nM.
As to `O=C(NCc1ccccn1)c1ccc(N2CC(F)(F)C2)c(OCC2CC2)n1` [Example 147, 6-Cyclopropylmethoxy-5-(3,3-difluoro-azetidin-1-yl)-pyridine-2-carboxylic acid (pyridin-2-ylmethyl)-amide], the EC50 at human CB2 receptors is 922 nM; on human CB1 receptors it was over 10000 nM.
For `O=C(c1ccc(N2CC(F)(F)C2)c(OCC2CC2)n1)N1CCC[C@H]1CO` [Example 149, [6-Cyclopropylmethoxy-5-(3,3-difluoro-azetidin-1-yl)-pyridin-2-yl]-((S)-2-hydroxymethyl-pyrrolidin-1-yl)-methanone] the same measures were 174 nM and over 10000 nM.
The matching figures for `CC(C)C[C@H](NC(=O)c1ccc(C2(O)COC2)c(OCC2CC2)n1)C(N)=O` [Example 150, 6-Cyclopropylmethoxy-5-(3-hydroxy-oxetan-3-yl)-pyridine-2-carboxylic acid ((S)-1-carbamoyl-3-methyl-butyl)-amide]: 157 nM and over 10000 nM.
As for `Cc1nc(C(C)(C)NC(=O)c2ccc(C3CCOC3)c(-c3cccc(Cl)c3)n2)no1` (centres unmarked) [Example 151, 6-(3-Chloro-phenyl)-5-(tetrahydro-furan-3-yl)-pyridine-2-carboxylic acid [1-methyl-1-(5-methyl-[1,2,4]oxadiazol-3-yl)-ethyl]-amide], the EC50 was 351 nM on human CB2 receptors and over 10000 nM on human CB1 receptors.
For `COCCOCC(C)(C)NC(=O)c1ccc(N2CC(F)(F)C2)c(-c2cccc(Cl)c2)n1` [Example 152, 6-(3-Chloro-phenyl)-5-(3,3-difluoro-azetidin-1-yl)-pyridine-2-carboxylic acid [2-(2-methoxy-ethoxy)-1,1-dimethyl-ethyl]-amide] the same measures were 442 nM and over 10000 nM.
For `COCCOc1nc(C(=O)NC(C)(C)c2noc(C)n2)ccc1C1CC1` [Example 153, 5-Cyclopropyl-6-(2-methoxy-ethoxy)-pyridine-2-carboxylic acid [1-methyl-1-(5-methyl-[1,2,4]oxadiazol-3-yl)-ethyl]-amide] the same measures were 293 nM and over 10000 nM.
The matching figures for `CC(C)(CCN1CCOCC1)NC(=O)c1ccc(C2CC2)c(OCC2CC2)n1` [Example 154, 5-Cyclopropyl-6-cyclopropylmethoxy-pyridine-2-carboxylic acid (1,1-dimethyl-3-morpholin-4-yl-propyl)-amide]: 150 nM and over 10000 nM.
Take `CC(C)C[C@H](NC(=O)c1ccc(C2CC2)c(Cc2ccc(F)cc2)n1)C(N)=O` [Example 155, 5-Cyclopropyl-6-(4-fluoro-benzyl)-pyridine-2-carboxylic acid ((S)-1-carbamoyl-3-methyl-butyl)-amide]: the values for the EC50 on human CB2 receptors and at human CB1 receptors were 0.7 nM and 123 nM, respectively.
For `CC(C)(NC(=O)c1ccc(N2CC(F)(F)C2)c(-c2cccc(Cl)c2)n1)c1nccs1` [Example 156, 6-(3-Chloro-phenyl)-5-(3,3-difluoro-azetidin-1-yl)-pyridine-2-carboxylic acid (1-methyl-1-thiazol-2-yl-ethyl)-amide] the same measures were 334 nM and over 10000 nM.
For the molecule `COCCOC[C@H](CC1CC1)NC(=O)c1ccc(N2CC(F)(F)C2)c(OCC2CC2)n1` [Example 157, 6-Cyclopropylmethoxy-5-(3,3-difluoro-azetidin-1-yl)-pyridine-2-carboxylic acid [(S)-2-cyclopropyl-1-(2-methoxy-ethoxymethyl)-ethyl]-amide], the EC50 at human CB2 receptors was 27.4 nM; on human CB1 receptors, over 10000 nM.
The matching figures for `COCCOc1nc(C(=O)N[C@@H](CC(C)C)C(N)=O)ccc1N1CC(F)(F)C1` [Example 158, 5-(3,3-Difluoro-azetidin-1-yl)-6-(2-methoxy-ethoxy)-pyridine-2-carboxylic acid ((S)-1-carbamoyl-3-methyl-butyl)-amide]: 22.9 nM and over 10000 nM.
The matching figures for `Cc1nc(C(C)(C)NC(=O)c2ccc(C3(O)CCC3)c(OCC3CC3)n2)no1` [Example 160, 6-Cyclopropylmethoxy-5-(1-hydroxy-cyclobutyl)-pyridine-2-carboxylic acid [1-methyl-1-(5-methyl-[1,2,4]oxadiazol-3-yl)-ethyl]-amide]: 124 nM and over 10000 nM.
For `COCCOc1nc(C(=O)N[C@@H](CC2CC2)C(N)=O)ccc1C1CC1` [Example 161, 5-Cyclopropyl-6-(2-methoxy-ethoxy)-pyridine-2-carboxylic acid ((S)-1-carbamoyl-2-cyclopropyl-ethyl)-amide] the same measures were 124 nM and over 10000 nM.
In the case of `NC(=O)[C@H](CC1CC1)NC(=O)c1ccc(N(CC(F)(F)F)CC(F)(F)F)c(OCC2CC2)n1` [Example 162, 5-[Bis-(2,2,2-trifluoro-ethyl)-amino]-6-cyclopropylmethoxy-pyridine-2-carboxylic acid ((S)-1-carbamoyl-2-cyclopropyl-ethyl)-amide], the EC50 worked out at 54.4 nM on human CB2 receptors and 674 nM at human CB1 receptors.
The matching figures for `Cc1nc([C@H](CC2CC2)NC(=O)c2ccc(C3CC3)c(OCC3CC3)n2)no1` [Example 163, 5-Cyclopropyl-6-cyclopropylmethoxy-pyridine-2-carboxylic acid [(S)-2-cyclopropyl-1-(5-methyl-[1,2,4]oxadiazol-3-yl)-ethyl]-amide]: 14.5 nM and over 10000 nM.
Take `Cc1nc([C@H](CC2CC2)NC(=O)c2ccc(N3CC(F)(F)C3)c(-c3cccc(Cl)c3)n2)no1` [Example 164, 6-(3-Chloro-phenyl)-5-(3,3-difluoro-azetidin-1-yl)-pyridine-2-carboxylic acid [(S)-2-cyclopropyl-1-(5-methyl-[1,2,4]oxadiazol-3-yl)-ethyl]-amide]: the EC50 at human CB2 receptors is 249 nM; on human CB1 receptors, over 10000 nM.
For `CCC(CC)(NC(=O)c1ccc(N(CC(F)(F)F)CC(F)(F)F)c(OCC2CC2)n1)C(=O)NC` [Example 165, 5-[Bis-(2,2,2-trifluoro-ethyl)-amino]-6-cyclopropylmethoxy-pyridine-2-carboxylic acid (1-ethyl-1-methylcarbamoyl-propyl)-amide] the same measures were 7.2 nM and 1200 nM.
